PMC9848270, “Synthesis and biological assessment of indole derivatives containing penta-heterocycles scaffold as novel anticancer agents towards A549 and K562 cells” (Journal of Enzyme Inhibition and Medicinal Chemistry, 2023)

Tests used:
[1] = system: human non-small cell lung cancer cells (A549); assay: MTT antiproliferative assay, A549; type: cell-based; conditions: for inhibition at 10 µM: A549, 10 μM, read-out: Inhibition rate, A549; for IC50: A549, 48 h, MTT assay, 48 h, read-out: In vitro cytotoxicity IC50, A549
Method: (§1) A549, PC-3, HepG2 and K562 cells were purchased from the Kunming cell bank of the Chinese academy of sciences. All cell lines were cultured in DMEM or RPMI 1640 complete medium. Logarithmic growth cells were cultured in 96-well plates at a concentration of 10^4 cells per well and pre-cultured for 24 h before adding test compounds. The MTT test with 5-Fluorouracil and Gefitinib as reference compounds were used to evaluate antiproliferative activity of target compounds in four human cancer line cells. For the estimation of the inhibition concentration (IC50), the Graph Pad Prism (GraphPad Software, San Diego, CA) was used.

[2] = system: human prostate cancer cells (PC-3); assay: MTT antiproliferative assay, PC-3; type: cell-based; conditions: Homo sapiens; for IC50: 48 h, MTT assay, read-out: In vitro cytotoxicity IC50, PC-3; for inhibition at 10 µM: read-out: Inhibition rate, PC-3
Method: as §1

[3] = system: human liver cancer cells (HepG2); assay: MTT antiproliferative assay, HepG2; type: cell-based; conditions: for inhibition at 10 µM: read-out: Inhibition rate, HepG2; for IC50: MTT assay, 48 h, read-out: In vitro cytotoxicity IC50, HepG2
Method: as §1

[4] = system: human chronic myeloid leukaemia cells (K562); assay: MTT antiproliferative assay, K562; type: cell-based; conditions: for inhibition at 10 µM: K562, 10 μM, read-out: Inhibition rate, K562; for IC50: K562, 48 h, MTT assay, 48 h, read-out: In vitro cytotoxicity IC50, K562
Method: as §1

[5] = MTT cytotoxicity, normal cell line HEK293; type: cell-based, human; conditions: human, HEK293 cells (normal cell line); MTT assay, 48 h; normal cell line; CC50; read-out: In vitro cytotoxicity IC50, HEK293
[6] = system: normal cell line (HEK293); assay: MTT cytotoxicity, normal cell line HEK293; type: cell-based, human; conditions: Homo sapiens, HEK293; 10 μM; read-out: Inhibition rate, HEK293

O=C(CSc1nnc(-c2cccnc2)s1)Nc1cc(-c2c[nH]c3ccccc23)n[nH]1 [Compound 10h, N-(3-(1H-indol-3-yl)-1H-pyrazol-5-yl)-2-((5-(pyridine-3-yl)-1,3,4-thiadiazol-2-yl)thio)acetamide]
inhibition at 10 µM [1]: 43.5 ± 1.7% | IC50 [1]: 7.96 ± 1.39 µM | IC50 [2]: 16.7 ± 4.86 µM | inhibition at 10 µM [2]: 28.9 ± 2.71% | inhibition at 10 µM [3]: 63.2 ± 5.32% | IC50 [3]: 5.58 ± 2.69 µM | inhibition at 10 µM [4]: 64.3 ± 8.28% | IC50 [4]: 6.93 ± 1.63 µM | IC50 at 48 h [5]: 21.9 ± 1.31 µM | inhibition at 10 µM [6]: 18.7 ± 8.52% | melting point: 233 to 235 °C

Nn1c(SCC(=O)Nc2cc(-c3c[nH]c4ccccc34)n[nH]2)nnc1-c1ccccc1F [Compound 11g, N-(3-(1H-indol-3-yl)-1H-pyrazol-5-yl)-2-((4-amino-5–(2-fluorophenyl)-4H-1,2,4-triazol-3-yl)thio)acetamide]
inhibition at 10 µM [1]: 67.5 ± 1.65% | IC50 [1]: 10.1 ± 2.37 µM | IC50 [2]: 6.52 ± 1.85 µM | inhibition at 10 µM [2]: 72.2 ± 13.2% | inhibition at 10 µM [3]: 74.9 ± 25.5% | IC50 [3]: 9.65 ± 5.87 µM | inhibition at 10 µM [4]: 98.5 ± 0.653% | IC50 [4]: 3.78 ± 0.54 µM | IC50 at 48 h [5]: 5.05 ± 1.17 µM | inhibition at 10 µM [6]: 65.4 ± 6.38% | melting point: 226 to 227 °C

Nn1c(SCC(=O)Nc2cc(-c3c[nH]c4ccccc34)n[nH]2)nnc1-c1ccc[nH]1 [Compound 11r, N-(3-(1H-indol-3–yl)-1H-pyrazol-5-yl)-2-((4-amino-5-(1H-pyrrol-2-yl)-4H-1,2,4-triazol-3-yl)thio)acetamide]
inhibition at 10 µM [1]: 94.2 ± 1.81% | IC50 [1]: 2.72 ± 0.26 µM | IC50 [2]: 2.73 ± 1.05 µM | inhibition at 10 µM [2]: 79.4 ± 9.21% | inhibition at 10 µM [3]: 96.5 ± 1.22% | IC50 [3]: 1.75 ± 0.07 µM | inhibition at 10 µM [4]: 95 ± 2.52% | IC50 [4]: 1.84 ± 0.66 µM | IC50 at 48 h [5]: 1.53 ± 0.93 µM | inhibition at 10 µM [6]: 72.3 ± 5.76% | melting point: 241 to 243 °C

COc1ccc(-c2nnc(SCC(=O)Nc3cc(-c4c[nH]c5ccccc45)n[nH]3)s2)cc1 [Compound 10e, N-(3-(1H-indol-3-yl)-1H-pyrazol-5-yl)-2-((5-(4-methoxyphenyl)-1,3,4-thiadiazol-2-yl)thio)acetamide]
inhibition at 10 µM [1]: 92.2 ± 1.01% | IC50 [1]: 0.834 ± 0.09 µM | IC50 [2]: 0.852 ± 0.43 µM | inhibition at 10 µM [2]: 92.5 ± 0.391% | inhibition at 10 µM [3]: 95.5 ± 0.354% | IC50 [3]: 0.801 ± 0.09 µM | inhibition at 10 µM [4]: 98.7 ± 1.05% | IC50 [4]: 0.193 ± 0.09 µM | IC50 at 48 h [5]: 0.89 ± 2.32 µM | inhibition at 10 µM [6]: 85.5 ± 1.26%

O=C(CSc1nnc(-c2ccc(Cl)cc2)s1)Nc1cc(-c2c[nH]c3ccccc23)n[nH]1 [Compound 10f, N-(3-(1H-indol-3-yl)-1H-pyrazol-5-yl)-2-((5-(4-chlorophenyl)-1,3,4-thiadiazol-2-yl)thio)acetamide]
inhibition at 10 µM [1]: 85.2 ± 3.63% | IC50 [1]: 4.33 ± 0.3 µM | IC50 [2]: 8.86 ± 7.04 µM | inhibition at 10 µM [2]: 58.7 ± 28.6% | inhibition at 10 µM [3]: 90.3 ± 2.77% | IC50 [3]: 3.34 ± 0.6 µM | inhibition at 10 µM [4]: 95.8 ± 3.98% | IC50 [4]: 0.991 ± 0.52 µM | IC50 at 48 h [5]: 2.56 ± 0.9 µM | inhibition at 10 µM [6]: 60.9 ± 6.65%

Nn1c(SCC(=O)Nc2cc(-c3c[nH]c4ccccc34)n[nH]2)nnc1-c1ccncc1 [Compound 11o, N-(3-(1H-indol-3-yl)-1H-pyrazol-5-yl)-2-((4-amino-5-(pyridin-4-yl)-4H-1,2,4-triazol-3-yl)thio)acetamide]
IC50 [1]: 30.3 ± 7 µM | IC50 [2]: 38.3 ± 1.75 µM | IC50 [3]: 33.4 ± 7.97 µM | IC50 [4]: 66 ± 3.48 µM | IC50 at 48 h [5]: 21.8 ± 1.76 µM | melting point: 170 to 172 °C

O=C(CSc1nnc(-c2cc(Cl)cc(Cl)c2)s1)Nc1cc(-c2c[nH]c3ccccc23)n[nH]1 [Compound 10a, N-(3-(1H-indol-3-yl)-1H-pyrazol-5-yl)-2-((5-(3,5-dichlorophenyl)-1,3,4-thiadiazol-2-yl)thio)acetamide]
inhibition at 10 µM [1]: 85.6 ± 3.54% | IC50 [1]: 0.433 ± 0.1 µM | IC50 [2]: 0.141 ± 0.01 µM | inhibition at 10 µM [2]: 95.7 ± 0.624% | inhibition at 10 µM [3]: 76 ± 3.39% | IC50 [3]: 4.45 ± 0.42 µM | inhibition at 10 µM [4]: 96 ± 2.31% | IC50 [4]: 0.0527 ± 0.02 µM | IC50 at 48 h [5]: 1.33 ± 0.07 µM | inhibition at 10 µM [6]: 87.6 ± 2.19%
